From US10577363B2, “Substituted piperidine compounds” (EPIZYME, INC., priority 2014, dated 2020) come the findings set out here.

Test [1] addresses T1, SMYD3 (Homo sapiens (Human), UniProt Q9H7B4). Put plainly: SMYD3 cell assay (Trimethyl-MEKK2 In-Cell Western in 293T/17 cells). The format is cell-based. To be noted: 293T/17 cells; read-out: SMYD3 Cell IC50 (μM)*. The method, boiled down: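 In-Cell Western readout: methanol-fixed cells stained for trimethyl-MEKK2 and flag tag, ratio per well normalized to DMSO and background controls.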

Test [2] concerns the target T1, SMYD3. Put plainly: SMYD3 biochemical assay (SPA, 3H-SAM methylation of MEKK2 protein substrate). To be noted: read-out: SMYD3 Biochem IC50 (μM)*. The method, boiled down:
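SPA methyltransferase format: tag-cleaved human SMYD3, insect-cell GST-MEKK2 protein substrate, 3H-SAM donor, 30 min RT enzyme–compound preincubation, 100 uM cold SAM quench.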

T1 sequence (Q9H7B4 whole entry): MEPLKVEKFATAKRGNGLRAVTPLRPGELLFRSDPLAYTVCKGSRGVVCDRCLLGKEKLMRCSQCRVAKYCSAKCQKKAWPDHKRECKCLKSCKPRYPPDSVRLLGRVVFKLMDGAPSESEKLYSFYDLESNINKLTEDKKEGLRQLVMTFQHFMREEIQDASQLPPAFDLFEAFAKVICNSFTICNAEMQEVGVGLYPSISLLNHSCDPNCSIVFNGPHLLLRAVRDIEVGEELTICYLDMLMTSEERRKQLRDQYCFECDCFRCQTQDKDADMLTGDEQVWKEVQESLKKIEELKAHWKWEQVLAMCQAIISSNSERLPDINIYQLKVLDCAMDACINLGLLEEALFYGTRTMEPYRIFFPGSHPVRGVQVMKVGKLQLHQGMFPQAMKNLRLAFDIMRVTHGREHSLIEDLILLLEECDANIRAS

A word on the IC50: it is the point on the concentration scale where inhibition reaches its midpoint. In the case of `COCCN(C)c1ccc(S(=O)(=O)N2CC[C@@H](NC(=O)c3cc(C4CC4)on3)C[C@H]2C)cn1` [compound 455, 5-cyclopropyl-N-((2R,4R)-1-((6-((2-methoxyethyl)(methyl)amino)pyridin-3-yl)sulfonyl)-2-methylpiperidin-4-yl)isoxazole-3-carboxamide], the half-inhibitory concentration (IC50) at SMYD3 [1] and on SMYD3 [2] was more than 10 µM each time.

For the compound `COCCNc1ccc(S(=O)(=O)N2CC[C@@H](NC(=O)c3cc(C4CC4)on3)C[C@H]2C)cn1` [compound 457, 5-cyclopropyl-N-((2R,4R)-1-((6-((2-methoxyethyl)amino)pyridin-3-yl)sulfonyl)-2-methylpiperidin-4-yl)isoxazole-3-carboxamide], the IC50 on SMYD3 [1] and on SMYD3 [2] was more than 10 µM throughout.

On to `C[C@@H]1C[C@H](NC(=O)c2cc(C3CC3)on2)CCN1S(=O)(=O)c1ccc(NCCN2CCOCC2)nc1` [compound 459, 5-cyclopropyl-N-((2R,4R)-2-methyl-1-((6-((2-morpholinoethyl)amino)pyridin-3-yl)sulfonyl)piperidin-4-yl)isoxazole-3-carboxamide], for which the IC50 at SMYD3 [1] stood at 4.58 µM; on SMYD3 [2], 2.36 µM.

Turning to `C[C@@H]1C[C@H](NC(=O)c2cc(C3CC3)on2)CCN1S(=O)(=O)c1ccc(N(C)CCN2CCOCC2)nc1` [compound 460, 5-cyclopropyl-N-((2R,4R)-2-methyl-1-((6-(methyl(2-morpholinoethyl)amino)pyridin-3-yl)sulfonyl)piperidin-4-yl)isoxazole-3-carboxamide], the IC50 on SMYD3 [1] and on SMYD3 [2] was more than 10 µM in each case.

`C[C@H]1C[C@@H](NC(=O)c2cc(C3CC3)on2)CCN1S(=O)(=O)c1ccc(N(C)CCN)nc1` [compound 461, N-((2S,4S)-1-((6-((2-aminoethyl)(methyl)amino)pyridin-3-yl)sulfonyl)-2-methylpiperidin-4-yl)-5-cyclopropylisoxazole-3-carboxamide]: the IC50 at SMYD3 [1] amounted to 3.85 µM; on SMYD3 [2] it was 0.0142 µM.

Turning to `C[C@@H]1C[C@H](NC(=O)c2cc(C3CC3)on2)CCN1S(=O)(=O)c1ccc(N(C)CCN)nc1` [compound 463, N-((2R,4R)-1-((6-((2-aminoethyl)(methyl)amino)pyridin-3-yl)sulfonyl)-2-methylpiperidin-4-yl)-5-cyclopropylisoxazole-3-carboxamide], the results for the IC50 on SMYD3 [1] and at SMYD3 [2] were 4.33 µM and 0.163 µM, respectively.

Consider `C[C@@H]1C[C@H](NC(=O)c2cc(C3CC3)on2)CCN1S(=O)(=O)c1ccc(NCCN)nc1` [compound 464, N-((2R,4R)-1-((6-((2-aminoethyl)amino)pyridin-3-yl)sulfonyl)-2-methylpiperidin-4-yl)-5-cyclopropylisoxazole-3-carboxamide], for which the half-inhibitory concentration (IC50) is 3.3 µM on SMYD3 [1] and 0.0897 µM at SMYD3 [2].

For the compound `CC(C)CNc1ccc(S(=O)(=O)N2C3CCCC2CC(NC(=O)c2cc(C4CC4)on2)C3)cn1` (centres unmarked) [compound 465, 5-cyclopropyl-N-(9-((6-(isobutylamino)pyridin-3-yl)sulfonyl)-9-azabicyclo[3.3.1]nonan-3-yl)isoxazole-3-carboxamide], the IC50 came out at 6.16 µM at SMYD3 [1] and 3.12 µM on SMYD3 [2].

Regarding `CNc1ncccc1S(=O)(=O)N1CC[C@H](NC(=O)c2cc(C3CC3)on2)C[C@@H]1C` [compound 467, 5-cyclopropyl-N-((2S,4S)-2-methyl-1-((2-(methylamino)pyridin-3-yl)sulfonyl)piperidin-4-yl)isoxazole-3-carboxamide], the IC50 is 5.76 µM at SMYD3 [1] and 3.74 µM on SMYD3 [2].

On to `C[C@H]1C[C@@H](NC(=O)c2cc(C3CC3)on2)CCN1S(=O)(=O)c1cccnc1NCCN` [compound 475, N-((2S,4S)-1-((2-((2-aminoethyl)amino)pyridin-3-yl)sulfonyl)-2-methylpiperidin-4-yl)-5-cyclopropylisoxazole-3-carboxamide], for which the IC50 on SMYD3 [1] stood at 1.34 µM; at SMYD3 [2], 0.0865 µM.
